One may read the IC50 as the midpoint of a concentration-inhibition curve.

Molecules are shown by their SMILES.

The source of these data is publication PMC10943337 (Heliyon, 2024).

In this test the target is α-glucosidase (EC3.2.1.20). The experiment in a line: p-nitrophenyl-d-glucopyranoside hydrolysis, absorbance at […] nm, pH […] °C. Type of test: biochemical, Saccharomyces cerevisiae. Conditions: read-out: IC50 μM.

Consider `COc1c(-c2ccc(O)c(O)c2)oc2c(O)c(O)ccc2c1=O` [compound 1, 2-(3,4-dihydroxyphenyl)-7,8-dihydroxy-3-methoxy-4H-chromen-4-one], for which the IC50 turned out to be 45.9 ± 1.98 µM.
